Consider two compounds from patent US20100234463A1, “Method for Identifying Modulators of Gamma Secretase or Notch” (priority 2005, published 2010).

One experiment deals with Aβ40. In words: Quantification of Aβ40 in cell-conditioned media by ECL. Particulars: 24 hours. The format is cell-based, human. As for the experimental part:
(§1) Human embryonic kidney (HEK) 293 cells stably over-expressing β-amyloid precursor protein (βAPP695) and c-myc-tagged NotchΔE (M1727V) have been previously described (Beher, D. et al., J. Biol Chem. 276: 45394-45402, (2001)). Cells were routinely maintained in Dulbecco's modified Eagle's medium (DMEM) supplemented with 10% (v/v) fetal calf serum (FCS, Invitrogen™, Carlsbad, Calif.), 1 μg/ml puromycin (Sigma-Aldrich, St. Louis, Mo.) to maintain βAPP expression and 100 μg/ml zeocin (Life Technologies, Inc., Rockville, Md.) to select for NotchΔE expression. Cells were passaged on a weekly basis using 1:10 split ratio.
(§2) On the day of the assay, media was removed and cells washed with phosphate-buffered saline (PBS, Sigma-Aldrich, St. Louis, Mo.), followed by incubation with 1.5 ml Accutase (PAA Laboratories GmbH, Pasching, Austria) at 37° C. for 10 minutes to detach cells. DMEM supplemented with 10% (v/v) FCS was added and the cell suspension centrifuged for 5 minutes at 1120 prm. […] A further 9 ml DMEM supplemented with 0.4% (v/v) FCS was added and cells counted.
(§3) Cells were plated in poly-d-lysine coated 96-well plates (Becton Dickinson, Fullerton, Calif.) at 10,000 cells/well in DMEM supplemented with 0.4% (v/v) FCS (Invitrogen™, Carlsbad, Calif.). […] Cell conditioned media was removed for quantification of Aβ peptides and the cell monolayer fixed by incubating with 3.7% (v/v) formaldehyde (Sigma-Aldrich, St. Louis, Mo.) in PBS at room temperature for fifteen minutes.
Aβ peptides secreted into the media were quantified using an electrochemiluminescence (ECL) assay in a 96-well plate format (Sector HTS™ analyzer, Meso Scale Discovery® a division of Meso Scale Diagnostics™, LLC (MSD™), Gaithersburg, Md.). […] Plates were washed with PBS (three times, five minutes each) and media replaced with 150 μl Read buffer S (Meso Scale Discovery®) prior to detecting Aβ40 and Aβ42 using the Sector HTS™ Analyzer. […]
Mean values for vehicle control and compound C treated cells were calculated. […] Percent control values were calculated using the following formula: […]

Another experiment deals with γ-secretase. Particulars: reported; cited from earlier work.
The next experiment relates to Notch. In words: NICD nuclear translocation high content screening assay (ArrayScan). The format is cell-based, human. As for the experimental part: as §1, §2, §3
Cells were washed with PBS (three times, five minutes each) and incubated with 0.1% Triton-X in PBS for 90 seconds at room temperature. […] After washing with PBS (three times, five minutes each), the plates were sealed and transferred to a Cellomics™ ArrayScan® 4.0 (Cellomics Inc, Pittsburgh, Pa.) for quantification of NICD translocation.
Automated image capture and quantification of NICD nuclear translocation was performed using a Cellomics™ ArrayScan® 4.0 and the Cytoplasm to Nucleus Translocation BioApplication software (Cellomics, Pittsburgh, Pa.). […]

In experiment [1] the test system is Aβ42. Particulars: cited from earlier work.
Experiment [2] relates to Aβ42. In words: Quantification of Aβ42 in cell-conditioned media by ECL. The format is cell-based, human. Particulars: 24 hours. How it is done:
as §1
On the day of the assay, media was removed and cells washed with phosphate-buffered saline (PBS, Sigma-Aldrich, St. Louis, Mo.), followed by incubation with 1.5 ml Accutase (PAA Laboratories GmbH, Pasching, Austria) at 37° C. for 10 minutes to detach cells. […] A further 9 ml DMEM supplemented with 0.4% (v/v) FCS was added and cells counted.
Cells were plated in poly-d-lysine coated 96-well plates (Becton Dickinson, Fullerton, Calif.) at 10,000 cells/well in DMEM supplemented with 0.4% (v/v) FCS (Invitrogen™, Carlsbad, Calif.). […] Cell conditioned media was removed for quantification of Aβ peptides and the cell monolayer fixed by incubating with 3.7% (v/v) formaldehyde (Sigma-Aldrich, St. Louis, Mo.) in PBS at room temperature for fifteen minutes. […]

On to `CC(C)C[C@H](NC(=O)[C@H](Cc1ccccc1)C[C@@H](O)[C@H](Cc1ccccc1)NC(=O)OC(C)(C)C)C(=O)N[C@@H](Cc1ccccc1)C(N)=O` [C], for which, in the experiment with Aβ40 (increasing concentrations), the “effect on Aβ40 levels” value was “declined”. Also, the “potency for inhibition of Aβ40 versus Aβ42 peptides” value in the experiment on γ-secretase is given as “equivalent potency”. Moreover, the “inhibition of NICD nuclear translocation over time” value in the experiment on Notch (10 μM, up to twenty four hours) is given as “Time-dependant inhibition”.

The term IC50 denotes the concentration that inhibits the measured activity by half. For the compound `C[C@@H](C(=O)O)c1ccc(-c2ccccc2)c(F)c1` [Compound F], the “concentrations at which Aβ40 peptide generation was inhibited” value in the experiment with Aβ40 is no less than 30 µM. The IC50 was greater than 1000 µM with Aβ40 (HEK293 βAPP695 NotchΔE cells); greater than 1000 µM in the experiment with Notch (NICD nuclear translocation, 24 hours); 9.24 µM with Aβ42 [2] (HEK293 βAPP695 NotchΔE cells). Also, in the experiment on Aβ42 [1], the “reported effect on Aβ42” value was “preferentially inhibit Aβ42”. Further, in the experiment with Notch (24 hours), the “concentrations with no effect on NICD nuclear translocation” value is listed as “up to 1000 μM”. Moreover, the “effect on Aβ42 peptide levels” value with Aβ42 [2] (increasing concentrations) is reported as “selectively reduced”.
